The nature of the assay: Ability to inhibit GTP-gamma-S binding to Opioid receptor delta 1 of guinea pig caudate.

Structures are written as SMILES.

A word on the Ki: it is a measure of affinity in units of concentration, obtained from inhibition or displacement. Read a high Ki as weaker binding. Regarding `COc1ccc2c(c1O)[C@]13CCN(CC4CC4)[C@H](C2)[C@@H]1Cc1c([nH]c2ccccc12)C3` [17-cyclopropylmethyl-6,7-didehydro-4-hydroxy-3-methoxy-6,7:2',3'-indolmorphinan], the Ki turned out to be 22 nM.

The values above are taken from BindingDB's records for doi:10.1021/jm9807003 (National Institute of Diabetes, 1999).
